# Reference: US5670526A, “1,3,4-oxadiazoles” (Otsuka Pharmaceutical Co., Ltd., priority 1995, dated 1997)
# Assays:
# ELAM = test: ELISA for cell surface molecules: inhibition of ELAM expression on IL-1β stimulated HUVEC's; assay type: cell-based; details: Homo sapiens; for inhibition at 10 µg/mL: @ 10 μg/mL; for inhibition at 1 µg/mL: @ 1 μg/mL; for inhibition at 3 µg/mL: @ 3 μg/ml
# Procedure: (§1) The following were used in an ELISA for cell surface molecules: Costar 96-well TC plates, 2% gelatin, 1% BSA-Dulbecco's PBS w/CaMg^++, IL-1β, primary antibody e.g., 7A9 for ELAM (EP 505749) secondary biotinylated goat anti-mouse IgG/IgM, streptavidin-peroxidase, OPD substrate tablets and 30% hydrogen peroxide.
# (§2) To begin, 96-well plates were coated with 2% gelatin (1 hour). The excess gelatin was aspirated from the wells. HUVEC's were seeded at 20,000 cells/well in a 200 μl volume.
# (§3) Prior to assay, the test compounds were dissolved in DMSO at a stock concentration of 3 mg/ml. The stock solutions were set at room temperature and observed to see if dissolution was complete. When monolayers reached confluence (24-28 hours after seeding) the test compounds were added to the wells at final concentrations of 10 μg/ml, 3 μg/ml and 1 μg/ml. The plates were incubated for 1 hour at 37° C. Then, IL-1β at a final concentration of 1 μg/ml was added and the plates incubated for 4 hours at 37° C. The supernatant was removed from the plates by flicking into a sink. The wells were washed 3× with 1% BSA-Dulbecco's PBS.
# (§4) Primary antibody (7A9 for ELAM or a suitable antibody for VCAM or ICAM) at a concentration of 2.5 μg/ml in a 50 μl volume was added to each well. The plates were incubated at 4° C. for 45 minutes to 1 hour. The wells were washed 3× with 1% BSA Dulbecco's PBS. Secondary antibody (biotinylated goat anti-mouse IgG-IgM, commercially available) at 50 μl/well at a final dilution of 1:1,000 was added to the well and the plates were incubated for 45 minutes to 1 hour at 4° C. The wells were washed 3× with 1% BSA-Dulbecco's PBS.
# (§5) Streptavidin-peroxidase at 50 μl/well with a final dilution of 1:3,000 was added to each well and the plates were incubated at 4° C. for 30 minutes. Again the plates were washed 3× with 1% BSA-Dulbecco's PBS.
# (§6) Substrate solution (OPD tablets, citric acid buffer and hydrogen peroxide solution) was prepared and added at 100 μl/well. The plates were incubated 15 minutes at room temperature on a plate shaker and the reaction was stopped with 12.5% sulfuric acid. Plates were read for absorbance values at 492 nm.
# (§7) The degree of inhibition in expression of ELAM or VCAM by a compound of the instant invention is manifest as a decrease in specific primary antibody binding. In the following table the IC50 values are provided using a representative sampling of compounds of the instant invention.
# VCAM = test: ELISA for cell surface molecules: inhibition of VCAM expression on IL-1β stimulated HUVEC's; assay type: cell-based; details: Homo sapiens; for inhibition at 10 µg/mL: @ 10 μg/mL; for inhibition at 3 µg/mL: @ 3 μg/ml; for inhibition at 1 µg/mL: @ 1 μg/mL
# Procedure: as §1, §2, §3, §4, §5, §6, §7
# Neutrophil migration = test: Immune complex (BSA/anti-BSA) induced neutrophil migration into mouse skin, myeloperoxidase (MPO) assay; assay type: in vivo, C57BL/6 mouse; details: for inhibition in vivo at 12.5 mg/site: Mus musculus, Neutrophil, 12.5 mg of drug/site, i.d., 4 hours
# Procedure: Neutrophil migration and infiltration into tissue spaces and the effect thereon of the compounds of the instant compounds can be tested. For example, immune complexes can be developed at a subcutaneous or intradermal site to draw neutrophils and the effect of the instant compounds on neutrophil migration can be assessed. A protocol is as follows. Mice are injected IV with bovine serum albumin (BSA). Then the mice are injected intradermally with antibody to BSA. For experimental animals, the test substance is administered concurrently intradermally or subcutaneously at the site of antibody deposition. After about four hours, the animal is sacrificed, the skin at the injection site is removed and then treated appropriately, such as assaying for myeloperoxidase, to determine the extent of neutrophil migration to the injection site.
# An i.v. injection of 100 μl of BSA at 10 mg/ml in saline was followed by a 25 μl injection of anti-BSA i.d. on the back side of a pre-shaven C57BL/6 mouse. At time 0, along with the BSA and anti-BSA, the test compound or vehicle was administered i.d. at the site of the antibody injection in a volume of 25 μl (for example, 0.5 mg/μl solution). Four hours post injection, the skin was removed and a myeloperoxidase (MPO) assay performed (Mulligan et al., J. Imm. 151(10): 5666-5674, 1993).
# Briefly, the skin sample was placed in a 17×100 mm test tube containing 2 ml of ice cold buffer (PBS, pH 7.4). The sample was ground for 30 seconds and placed on ice. The sample was vortexed for 10 seconds and then sonicated for three minutes in iced water. The sample was frozen in dry ice for 30 minutes. The sample then was thawed rapidly in a water bath for 10 minutes. An aliquot of 1.5 ml was removed and placed in a microfuge tube. The sample was spun at high speed in a cold room for 15 minutes. The sample then was titrated across the wells in a microtiter plate with the first well containing a 1:3 dilution of sample, for example, 50 μl of sample and 150 μl of buffer. Substrate and hydrogen peroxide were added to each well. Following a suitable incubation period, sodium azide was added to the wells and the absorbance monitored in a spectrophotometer at 460 nm. […]
# [1] = test system: Concanavalin A (ConA)-induced liver injury; test: Concanavalin A (ConA)-induced liver injury in mice, serum SGOT; assay type: in vivo, C57BL/6 mice; details: Mus musculus, ip, ConA 15 mg/kg i.v., 17 hours, read-out: SGOT (% decrease); for inhibition in vivo at 50 mg/kg: 50 mg/kg i.p.
# Procedure: The following protocol was used for the Concanavalin A (ConA)-induced liver injury in mice. C57BL/6 mice were used. A solution of ConA (Sigma)in PBS was prepared at a concentration of 1.5 mg/ml. The mice were administered, i.p., with […] of a 10% DMSO solution containing varying amounts (adjusted to give 25 mg/kg to 50 mg/kg of compound) of the representative compounds of interest. Fifteen minutes later, the mice were treated via the tail vein with 15 mg/kg of ConA in PBS along with […] of 10% DMSO solution.
# The mice were sacrificed after 17 hours and the blood collected into small conical tubes. The tubes were centrifuged and the serum collected and assayed for serum glutamic oxaloacetic transaminase (SGOT) (Sigma GOT kit). The high level enzyme standard (Sigma) was used to make the standard curve, as 100(undiluted), 50, 25, 12.5 and 0 S-F units/mi. Samples were diluted 1:5, 1:25 and 1:125 by adding 25 μl of serum to 100 μl of H2 O and serially diluting 25 μl into 100 μl two more times. Then 100 μl of the Sigma substrate were added to each tube along with 20 μl of each diluted sample and enzyme standard. The tube was incubated in a 37° C. bath with gentle shaking for 1 hour. To that was added […] of colorizing reagent and the tube was left to stand for 30 minutes. Then 500 μl of 0.8N NaOH solution were added, the tubes were capped and inverted to mix thoroughly. A 150 μl aliquot of each sample and 150 μl of the standard were added to wells of a 96-well plate and color formation was monitored at 490 nm. The amounts of SGOT were calculated using a standard curve, converted to Sigma-Frankel units/ml.
# [2] = test system: Concanavalin A (ConA)-induced liver injury; test: as above; assay type: in vivo, C57BL/6 mice; details: Mus musculus, ip; 20 mg/kg i.p.; ConA 15 mg/kg i.v., 17 hours; read-out: SGOT (% decrease)
Structure (SMILES),inhibition at 3 µg/mL (VCAM) [%],inhibition in vivo at 12.5 mg/site (Neutrophil migration) [%],inhibition in vivo at 50 mg/kg [1] [%],further results
COc1ccnc2c1CCCCC2[S+]([O-])c1nnc(C)o1 (stereo not drawn) [Compound 73],,,,inhibition at 10 µg/mL (ELAM): 20%; inhibition at 10 µg/mL (VCAM): 20%
[O-][S+](Cc1ccccc1)c1nnc(-c2nc(-c3ccccc3)cs2)o1 (stereo not drawn) [Compound 121],50,,,
[O-][S+](Cc1ccccc1)c1nnc(-c2cccnc2)o1 (stereo not drawn) [Compound 101],,50,68,inhibition at 10 µg/mL (ELAM): 75%; inhibition at 10 µg/mL (VCAM): 40%
[O-][S+](Cc1ccccn1)c1nnc(-c2cccnc2)o1 (stereo not drawn) [Compound 100],80,60,,
COc1c(C)cnc(CSc2nnc(-c3nc(-c4ccccc4)cs3)o2)c1C [Compound 67],,,55,
c1ccc(CSc2nnc(-c3ccccn3)o2)cc1 [Compound 44],,,,inhibition in vivo at 25 mg/kg ([1]; 25 mg/kg i.p.): 86%
[O-][S+](Cc1ccccn1)c1nnc(-c2ccccn2)o1 (stereo not drawn) [Compound 96],,70,,inhibition at 1 µg/mL (ELAM): 50%; inhibition at 1 µg/mL (VCAM): 50%
CCc1nnc([S+]([O-])Cc2ncc(C)c(OC)c2C)o1 (stereo not drawn) [Compound 79],50,,,inhibition at 3 µg/mL (ELAM): 35%
COc1c(C)cnc(CSc2nnc(-c3cccs3)o2)c1C [Compound 35],,,45,
[O-][S+](Cc1ccccn1)c1nnc(-c2ccncc2)o1 (stereo not drawn) [Compound 92],100,60,,
COc1ccnc2c1CCCCC2Sc1nnc(C)o1 (stereo not drawn) [Compound 19],,,87,
Cc1nnc([S+]([O-])Cc2ccccc2)o1 (stereo not drawn) [Compound 72],25,,,inhibition at 3 µg/mL (ELAM): 15%
c1ccc(CSc2nnc(-c3cccnc3)o2)cc1 [Compound 48],,,51,
COc1c(C)cnc(C[S+]([O-])c2nnc(-c3cccs3)o2)c1C (stereo not drawn) [Compound 89],,,95,inhibition at 1 µg/mL (ELAM): 25%; inhibition at 1 µg/mL (VCAM): 60%
[O-][S+](Cc1ccccn1)c1nnc(C23CC4CC(CC(C4)C2)C3)o1 (stereo not drawn) [Compound 102],30,25,,
[O-][S+](Cc1ccccc1)c1nnc(-c2ccccn2)o1 (stereo not drawn) [Compound 97],,80,,inhibition at 1 µg/mL (ELAM): 50%; inhibition at 1 µg/mL (VCAM): 55%; inhibition in vivo at 20 mg/kg [2]: 45%
Cc1nnc([S+]([O-])Cc2nccn2Cc2ccccc2)o1 (stereo not drawn) [Compound 75],100,20,,inhibition at 3 µg/mL (ELAM): 55%

Structure (SMILES),inhibition at 3 µg/mL (VCAM) [%],inhibition in vivo at 12.5 mg/site (Neutrophil migration) [%],inhibition in vivo at 50 mg/kg [1] [%],further results
COc1c(C)cnc(C[S+]([O-])c2nnc(-c3cccn3C)o2)c1C (stereo not drawn) [Compound 112],,,,inhibition at 1 µg/mL (ELAM): 25%; inhibition at 1 µg/mL (VCAM): 65%
COc1c(C)cnc(C[S+]([O-])c2nnc(-c3ccccc3O)o2)c1C (stereo not drawn) [Compound 113],,20,80,inhibition at 1 µg/mL (ELAM): 30%; inhibition at 1 µg/mL (VCAM): 50%
"COc1c(C)cnc(C[S+]([O-])c2nnc(C)o2)c1C (stereo not drawn) [Compound 70, 2-(3,5-dimethyl-4-methoxy-2-pyridyl)methylsulfinyl-5-methyl-1,3,4-oxadiazole]",65,55,82,inhibition at 3 µg/mL (ELAM): 55%
[O-][S+](Cc1ccccc1)c1nnc(-c2cc(-c3ccccc3)nc3ccccc23)o1 (stereo not drawn) [Compound 106],10,,,
CCCCc1nnc([S+]([O-])Cc2ncc(C)c(OC)c2C)o1 (stereo not drawn) [Compound 81],20,,,
CCCc1nnc([S+]([O-])Cc2ncc(C)c(OC)c2C)o1 (stereo not drawn) [Compound 80],70,,,inhibition at 3 µg/mL (ELAM): 45%
"COc1c(C)cnc(CSc2nnc(C)o2)c1C [Compound 16, 2-(3,5-dimethyl-4-methoxy-2-pyridyl)methylthio-5-methyl-1,3,4-oxadiazole]",,,85,
[O-][S+](Cc1ccccc1)c1nnc(-c2ccccc2O)o1 (stereo not drawn) [Compound 114],,,,inhibition at 1 µg/mL (ELAM): 20%; inhibition at 1 µg/mL (VCAM): 25%
c1ccc(CSc2nnc(-c3nc(-c4ccccc4)cs3)o2)cc1 [Compound 68],,,,"decrease in MPO activity (Neutrophil migration; test compound i.d. at site of antibody injection, 4 hours post injection): 55-60%"
[O-][S+](Cc1ccccc1)c1nnc(-c2cccs2)o1 (stereo not drawn) [Compound 91],,40,,inhibition at 1 µg/mL (ELAM): 20%; inhibition at 1 µg/mL (VCAM): 20%
COc1c(C)cnc(C[S+]([O-])c2nnc(-c3ccc(C(F)(F)F)cc3)o2)c1C (stereo not drawn) [Compound 117],15,,,
COc1c(C)cnc(C[S+]([O-])c2nnc(-c3cccc(C(F)(F)F)c3)o2)c1C (stereo not drawn) [Compound 116],25,,,
COc1ccnc2c1CCCCC2Sc1nnc(-c2nc(-c3ccccc3)cs2)o1 (stereo not drawn) [Compound 69],,,30,
COc1c(C)cnc(CSc2nnc(-c3ccccc3O)o2)c1C [Compound 60],,,60,
Cc1nnc([S+]([O-])Cc2ncn(Cc3ccccc3)c2C)o1 (stereo not drawn) [Compound 76],,20,,
COc1c(C)cnc(C[S+]([O-])c2nnc(-c3ccccc3)o2)c1C (stereo not drawn) [Compound 85],100,25,,
Cc1nnc([S+]([O-])Cc2ccccn2)o1 (stereo not drawn) [Compound 71],40,40,,inhibition at 3 µg/mL (ELAM): 30%
